Biological target: T1, Ct7OMT (Coptis teeta, UniProt A0A2Z5FRT2)
T1 construct: gene 7OMT
Assay: UPLC-QTOF-MS/MS product detection
Assay type: biochemical
Conditions: SAM 0.1 mM, substrate 100 uM, pH 8.0, 30 C, 1 h

T1 sequence (A0A2Z5FRT2 entry or part of it): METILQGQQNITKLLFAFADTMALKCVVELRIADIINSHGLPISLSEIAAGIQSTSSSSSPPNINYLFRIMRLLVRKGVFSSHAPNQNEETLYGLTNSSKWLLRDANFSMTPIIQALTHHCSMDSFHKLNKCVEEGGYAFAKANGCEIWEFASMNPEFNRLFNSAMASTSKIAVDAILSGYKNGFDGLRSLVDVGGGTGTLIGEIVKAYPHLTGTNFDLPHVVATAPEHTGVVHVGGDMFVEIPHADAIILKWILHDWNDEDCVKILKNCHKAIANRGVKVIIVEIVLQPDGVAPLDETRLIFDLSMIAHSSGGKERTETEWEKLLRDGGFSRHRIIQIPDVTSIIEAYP

Oc1ccc(C[C@@H]2NCCc3cc(O)c(O)cc32)cc1 [compound 1, (S)-norcoclaurine] was tested, and the UPLC-QTOF-MS/MS product detection was “Ct7OMT also O-methylates (S)-norcoclaurine at C6, yielding (S)-coclaurine”.

From paper PMC5995273, “Identification and Characterization of Genes Involved in Benzylisoquinoline Alkaloid Biosynthesis in Coptis Species” (Frontiers in Plant Science, 2018)
